From PubChem BioAssay AID2060498 (Molecular Pharmacology Branch, DTP, NCI, 2025)

Tested on: 171881-019-R-J1-PDC tumor spheroids, viability
Assay: Anticancer human tumor 171881-019-R-J1-PDC patient-derived invasive breast carcinoma cell line growth inhibition [GQUAD]
Conditions: spheroids with HUVEC and MSC; for IC50: curve of first compound; for viability, T/C: stronger effect = lower value
Method in brief: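 Viability of tumor cells grown as complex spheroids with endothelial and stromal cells, exposed to drug combinations. Top concentration at or near clinical Cmax (else 10 microM), diluted in half-log increments.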

[1] = second compound 0.0316 µM, first compound 0.0316 µM
[2] = second compound 0.0316 µM, first compound 0.1 µM
[3] = second compound 0.0316 µM, first compound 0.316 µM
[4] = second compound 0.0316 µM, first compound 1 µM
[5] = second compound 0.0316 µM, first compound 3.16 µM
[6] = second compound 0.0316 µM, first compound 10 µM
[7] = second compound 0.1 µM, first compound 0.0316 µM
[8] = second compound 0.1 µM, first compound 0.1 µM
[9] = second compound 0.1 µM, first compound 0.316 µM
[10] = second compound 0.1 µM, first compound 1 µM
[11] = second compound 0.1 µM, first compound 3.16 µM
[12] = second compound 0.1 µM, first compound 10 µM
[13] = second compound 0.316 µM, first compound 0.0316 µM
[14] = second compound 0.316 µM, first compound 0.1 µM
[15] = second compound 0.316 µM, first compound 0.316 µM
[16] = second compound 0.316 µM, first compound 1 µM
[17] = second compound 0.316 µM, first compound 3.16 µM
[18] = second compound 0.316 µM, first compound 10 µM
[19] = second compound 1 µM, first compound 0.0316 µM
[20] = second compound 1 µM, first compound 0.1 µM
[21] = second compound 1 µM, first compound 0.316 µM
[22] = second compound 1 µM, first compound 1 µM
[23] = second compound 1 µM, first compound 3.16 µM
[24] = second compound 1 µM, first compound 10 µM
[25] = second compound 3.16 µM, first compound 0.0316 µM
[26] = second compound 3.16 µM, first compound 0.1 µM
[27] = second compound 3.16 µM, first compound 0.316 µM
[28] = second compound 3.16 µM, first compound 1 µM
[29] = second compound 3.16 µM, first compound 3.16 µM
[30] = second compound 3.16 µM, first compound 10 µM
[31] = second compound 10 µM, first compound 0.0316 µM
[32] = second compound 10 µM, first compound 0.1 µM
[33] = second compound 10 µM, first compound 0.316 µM
[34] = second compound 10 µM, first compound 1 µM
[35] = second compound 10 µM, first compound 3.16 µM
[36] = second compound 10 µM, first compound 10 µM
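Throughout, for viability, T/C: 100% = DMSO vehicle control viability.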

Question: Which results are given for `COc1cccc2c1C(=O)c1c(O)c3c(c(O)c1C2=O)CC(O)(C(=O)CO)CC3OC1CC(N)C(O)C(C)O1` (stereo unspecified) + Cc1cnc(CNC(=O)c2c(=O)c3ccc(N4CCCN(C)CC4)nc3n3c2sc2ccccc23)cn1?
Answer: IC50 (second compound 0.0316 µM): 153 nM; IC50 (second compound 0.1 µM): 159 nM; IC50 (second compound 0.316 µM): 169 nM; IC50 (second compound 1 µM): 155 nM; IC50 (second compound 3.16 µM): 139 nM; IC50 (second compound 10 µM): 138 nM; viability, T/C [1]: 70.5%; viability, T/C [2]: 54.8%; viability, T/C [3]: 39%; viability, T/C [4]: 13.5%; viability, T/C [5]: 0.14%; viability, T/C [6]: 0.9%; viability, T/C [7]: 70.2%; viability, T/C [8]: 57.4%; viability, T/C [9]: 37.8%; viability, T/C [10]: 13.7%; viability, T/C [11]: 0.14%; viability, T/C [12]: 0.43%; viability, T/C [13]: 62.9%; viability, T/C [14]: 59.9%; viability, T/C [15]: 38.7%; viability, T/C [16]: 11.7%; viability, T/C [17]: 0.32%; viability, T/C [18]: 0.4%; viability, T/C [19]: 61.8%; viability, T/C [20]: 53.2%; viability, T/C [21]: 41.2%; viability, T/C [22]: 11.4%; viability, T/C [23]: 0.12%; viability, T/C [24]: 0.16%; viability, T/C [25]: 59.1%; viability, T/C [26]: 52.5%; viability, T/C [27]: 39.3%; viability, T/C [28]: 10.6%; viability, T/C [29]: 0.2%; viability, T/C [30]: 0.14%; viability, T/C [31]: 59.9%; viability, T/C [32]: 55.9%; viability, T/C [33]: 35.3%; viability, T/C [34]: 9.6%; viability, T/C [35]: 0.2%; viability, T/C [36]: 0.69%

Question: What does the source list for `Cc1cccc(N(C)C(=O)C2C(O)CCN2c2nc(C)cc(C(F)(F)F)c2C#N)c1` (stereo unspecified) + Cc1cnc(CNC(=O)c2c(=O)c3ccc(N4CCCN(C)CC4)nc3n3c2sc2ccccc23)cn1?
Answer: IC50 (second compound 0.0316 µM): > 10000 nM; IC50 (second compound 0.1 µM): > 10000 nM; IC50 (second compound 0.316 µM): > 10000 nM; IC50 (second compound 1 µM): > 10000 nM; IC50 (second compound 3.16 µM): > 10000 nM; IC50 (second compound 10 µM): > 10000 nM; viability, T/C [1]: 105%; viability, T/C [2]: 87.2%; viability, T/C [3]: 90.4%; viability, T/C [4]: 92.2%; viability, T/C [5]: 88.5%; viability, T/C [6]: 79.7%; viability, T/C [7]: 86.9%; viability, T/C [8]: 88%; viability, T/C [9]: 77.6%; viability, T/C [10]: 76.2%; viability, T/C [11]: 80.6%; viability, T/C [12]: 79.5%; viability, T/C [13]: 73.5%; viability, T/C [14]: 73.1%; viability, T/C [15]: 75.8%; viability, T/C [16]: 69.7%; viability, T/C [17]: 77.7%; viability, T/C [18]: 69%; viability, T/C [19]: 67.5%; viability, T/C [20]: 66.5%; viability, T/C [21]: 71.1%; viability, T/C [22]: 66.4%; viability, T/C [23]: 74.2%; viability, T/C [24]: 70.3%; viability, T/C [25]: 65.3%; viability, T/C [26]: 60.9%; viability, T/C [27]: 63.1%; viability, T/C [28]: 55.9%; viability, T/C [29]: 68.8%; viability, T/C [30]: 67.8%; viability, T/C [31]: 60.9%; viability, T/C [32]: 66.7%; viability, T/C [33]: 61.3%; viability, T/C [34]: 66.2%; viability, T/C [35]: 67.6%; viability, T/C [36]: 66.8%

Question: `Nc1ccn(C2OC(CO)C(O)C2(F)F)c(=O)n1` (stereo unspecified) + Cc1cnc(CNC(=O)c2c(=O)c3ccc(N4CCCN(C)CC4)nc3n3c2sc2ccccc23)cn1 was tested. Which IC50 (second compound 0.0316 µM) did it give?
Answer: < 31.6 nM

Question: And the IC50 (second compound 0.1 µM)?
Answer: < 31.6 nM

Question: And the IC50 (second compound 0.316 µM)?
Answer: < 31.6 nM

Question: And the IC50 (second compound 1 µM)?
Answer: < 31.6 nM

Question: And the IC50 (second compound 3.16 µM)?
Answer: < 31.6 nM

Question: And the IC50 (second compound 10 µM)?
Answer: < 31.6 nM

Question: And the viability, T/C [1]?
Answer: 27.8%

Question: And the viability, T/C [2]?
Answer: 29.9%

Question: And the viability, T/C [3]?
Answer: 39.4%

Question: What about the viability, T/C [4] of the same compound?
Answer: 38%

Question: What about the viability, T/C [5] of the same compound?
Answer: 33.7%

Question: What about the viability, T/C [6] of the same compound?
Answer: 31.2%

Question: And the viability, T/C [7]?
Answer: 29.8%

Question: And the viability, T/C [8]?
Answer: 31.9%

Question: And the viability, T/C [9]?
Answer: 37.1%

Question: And the viability, T/C [10]?
Answer: 41.4%

Question: And the viability, T/C [11]?
Answer: 37%

Question: What about the viability, T/C [12] of the same compound?
Answer: 33.8%

Question: And the viability, T/C [13]?
Answer: 31.5%

Question: What about the viability, T/C [14] of the same compound?
Answer: 36.2%

Question: What about the viability, T/C [15] of the same compound?
Answer: 44%

Question: What about the viability, T/C [16] of the same compound?
Answer: 37.9%

Question: And the viability, T/C [17]?
Answer: 39.1%

Question: And the viability, T/C [18]?
Answer: 34.7%

Question: What about the viability, T/C [19] of the same compound?
Answer: 35%

Question: What about the viability, T/C [20] of the same compound?
Answer: 35.6%

Question: What about the viability, T/C [21] of the same compound?
Answer: 42.7%

Question: And the viability, T/C [22]?
Answer: 41.2%

Question: What about the viability, T/C [23] of the same compound?
Answer: 44.2%

Question: What about the viability, T/C [24] of the same compound?
Answer: 37.3%

Question: What about the viability, T/C [25] of the same compound?
Answer: 36.2%

Question: What about the viability, T/C [26] of the same compound?
Answer: 38.6%

Question: And the viability, T/C [27]?
Answer: 43.8%

Question: What about the viability, T/C [28] of the same compound?
Answer: 43.3%

Question: What about the viability, T/C [29] of the same compound?
Answer: 44.9%

Question: And the viability, T/C [30]?
Answer: 40%

Question: And the viability, T/C [31]?
Answer: 33.2%

Question: What about the viability, T/C [32] of the same compound?
Answer: 37.3%

Question: What about the viability, T/C [33] of the same compound?
Answer: 39.1%

Question: What about the viability, T/C [34] of the same compound?
Answer: 45.6%

Question: What about the viability, T/C [35] of the same compound?
Answer: 46%

Question: What about the viability, T/C [36] of the same compound?
Answer: 40.8%
